According to US20250320213A1, “Nitrogen-Containing Heterocyclic Compounds” (Pfizer Inc., priority 2024, published 2025):
Where two headings read alike, the source gives them in different places.

Experiments:
[1] = biological target: T1, STAT6 (Homo sapiens, UniProt P42226); assay: STAT6 Reporter Luciferase Assay (IL-13 stimulated HaCaT keratinocyte NanoLuc reporter cells); assay type: cell-based; settings: read-out: Reporter EC50
T1 construct: stably transfected HaCaT keratinocyte cell line, which expresses NanoLuc luciferase reporter gene under the transcriptional control of the STAT6 responsive promoter; endogenous in cells; host or cells: HaCaT keratinocyte reporter cell line (stably transfected with a NanoLuc reporter)
T1 sequence (P42226 1-847): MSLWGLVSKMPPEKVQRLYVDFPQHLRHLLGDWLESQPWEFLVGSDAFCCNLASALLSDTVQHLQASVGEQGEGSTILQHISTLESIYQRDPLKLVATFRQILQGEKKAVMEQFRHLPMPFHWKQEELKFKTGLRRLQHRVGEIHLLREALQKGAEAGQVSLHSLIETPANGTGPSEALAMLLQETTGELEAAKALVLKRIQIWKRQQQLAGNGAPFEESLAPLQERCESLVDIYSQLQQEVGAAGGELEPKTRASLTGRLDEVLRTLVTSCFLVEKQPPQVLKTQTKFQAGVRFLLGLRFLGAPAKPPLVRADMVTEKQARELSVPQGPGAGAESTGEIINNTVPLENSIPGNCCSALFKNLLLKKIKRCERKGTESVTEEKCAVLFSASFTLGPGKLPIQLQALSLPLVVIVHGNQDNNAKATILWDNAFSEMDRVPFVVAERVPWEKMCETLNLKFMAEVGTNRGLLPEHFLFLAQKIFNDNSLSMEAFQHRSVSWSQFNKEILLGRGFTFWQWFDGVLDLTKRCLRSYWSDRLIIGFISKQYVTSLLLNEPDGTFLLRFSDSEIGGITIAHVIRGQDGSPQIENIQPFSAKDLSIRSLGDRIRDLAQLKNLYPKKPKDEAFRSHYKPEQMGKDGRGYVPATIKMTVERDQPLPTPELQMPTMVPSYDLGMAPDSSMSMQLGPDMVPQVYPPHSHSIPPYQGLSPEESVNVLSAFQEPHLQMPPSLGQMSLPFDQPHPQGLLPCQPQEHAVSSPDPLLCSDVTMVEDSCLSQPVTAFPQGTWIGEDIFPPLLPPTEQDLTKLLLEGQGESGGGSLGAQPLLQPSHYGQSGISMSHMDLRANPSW
How it was run: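 IL-13 (0.12 nM, 4 h) stimulated STAT6 reporter activity in HaCaT cells after a 2 h compound pre-incubation; NanoLuc signal was measured.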

[2] = tested on: CCL17 secretion in peripheral human whole blood; assay: Human Whole Blood (HWB) CCL17 TR-FRET Assay (IL-13 stimulated CCL17 secretion); assay type: cell-based
How it was run: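 Measured here: CCL17 in serum by TR-FRET (665/615 nm) after overnight (16 h) room-temperature detection. The blood, heparinized and compound-treated for 2 h, received IL-13 at 10 ng/mL final and was cultured 48 h at 37 °C.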

[3] = IL-13 stimulated HaCaT STAT6 NanoLuc reporter cells
[4] = STAT6 NanoLuc luciferase reporter, IL-13 stimulated HaCaT keratinocyte cells
[5] = Homo sapiens, 48 h, inhibition of CCL17 secretion in human whole blood, 10 ng/mL IL13, 48 hours
[6] = Homo sapiens, 48 h, human whole blood, IL-13 stimulated

Structure (SMILES) | EC50 [1, 3] | EC50 [1, 4] | IC50 [2, 5] | IC50 [2, 6] | also measured
CC(C)n1nc(C(=O)NCc2ccc(NC(=O)N3CCN(C)CC3)c(F)c2)c2c1[C@@H](C)CN(c1ccc(-n3ccccc3=O)cc1)C2 [Example 715, (S)-N-(3-fluoro-4-(4-methylpiperazine-1-carboxamido)benzyl)-1-isopropyl-7-methyl-5-(4-(2-oxopyridin-1(2H)-yl)phenyl)-4,5,6,7-tetrahydro-1H-pyrazolo[4,3-c]pyridine-3-carboxamide] | 5 nM |  |  |  | IC50 ([2]; Homo sapiens, 48 h, human whole blood, IL-13 10 ng/mL): 68 nM
CCn1nc(C(=O)NCc2ccc(NC(=O)N(C)C)cc2)c2c1C(C(F)(F)F)CN(c1ncc(C(=O)N(C)C)cn1)C2 (single isomer, unassigned) [Example 464, rel-(R or S)-5-(5-(dimethylcarbamoyl)pyrimidin-2-yl)-N-(4-(3,3-dimethylureido)benzyl)-1-ethyl-7-(trifluoromethyl)-4,5,6,7-tetrahydro-1H-pyrazolo[4,3-c]pyridine-3-carboxamide] | 0.2 nM |  |  |  | IC50 ([2]; human whole blood, IL-13 stimulated, 48 hours): 2 nM
CN(C)C(=O)Nc1ccc(CNC(=O)c2c3c(nn2C2CC2)CCN(c2ccc(C(=O)N(C)C)cn2)C3)cc1 [Example 19, 2-cyclopropyl-5-(5-(dimethylcarbamoyl)pyridin-2-yl)-N-(4-(3,3-dimethylureido)benzyl)-4,5,6,7-tetrahydro-2H-pyrazolo[4,3-c]pyridine-3-carboxamide] |  | > 10000 nM | 3360 nM |  | 
CC(C)n1nc(C(=O)NCc2ccc(NC(=O)N(C)C)cc2)c2c1CCN(c1ccc(N3CC[C@@H](F)C3=O)cn1)C2 [Example 98, (R)-N-(4-(3,3-dimethylureido)benzyl)-5-(5-(3-fluoro-2-oxopyrrolidin-1-yl)pyridin-2-yl)-1-isopropyl-4,5,6,7-tetrahydro-1H-pyrazolo[4,3-c]pyridine-3-carboxamide] |  | 48 nM | 573 nM |  | 
CC(C)n1nc(C(=O)NCc2ccc(NC(=O)N(C)C)cc2)c2c1CCN(c1ccc(N3CCCS3(=O)=O)cn1)C2 [Example 146, N-(4-(3,3-dimethylureido)benzyl)-5-(5-(1,1-dioxidoisothiazolidin-2-yl)pyridin-2-yl)-1-isopropyl-4,5,6,7-tetrahydro-1H-pyrazolo[4,3-c]pyridine-3-carboxamide] |  | 127 nM | 2120 nM |  | 
Cc1c[nH]c(-c2ccc(CNC(=O)c3nn(C(C)C)c4c3CN(c3ccc(N5CCOC5=O)cn3)C[C@@H]4C)cc2)n1 [Example 518, (S)-1-isopropyl-7-methyl-N-(4-(4-methyl-1H-imidazol-2-yl)benzyl)-5-(5-(2-oxooxazolidin-3-yl)pyridin-2-yl)-4,5,6,7-tetrahydro-1H-pyrazolo[4,3-c]pyridine-3-carboxamide] | 2 nM |  |  | 71 nM | 
CN(C)C(=O)Nc1ccc(CNC(=O)c2nn(CC3CC3)c3c2CN(c2ccc(C(=O)N(C)C)cn2)CC3)cc1 [Example 89, 1-(cyclopropylmethyl)-5-(5-(dimethylcarbamoyl)pyridin-2-yl)-N-(4-(3,3-dimethylureido)benzyl)-4,5,6,7-tetrahydro-1H-pyrazolo[4,3-c]pyridine-3-carboxamide] |  | 12 nM | 149 nM |  | 
CCn1nc(C(=O)NCc2ccc(NC(=O)N(C)C)cn2)c2c1[C@@H](C)CN(c1ncc(C(=O)N(C)C)cn1)C2 [Example 305, (S)-5-(5-(dimethylcarbamoyl)pyrimidin-2-yl)-N-((5-(3,3-dimethylureido)pyridin-2-yl)methyl)-1-ethyl-7-methyl-4,5,6,7-tetrahydro-1H-pyrazolo[4,3-c]pyridine-3-carboxamide] | 5 nM |  |  | 7 nM | 
CC(C)n1nc(C(=O)NCc2ccc(NC(=O)N(C)C)nc2)c2c1[C@@H](C)CN(c1ccc(C(=O)N(C)C)cn1)C2 [Example 349, (S)-5-(5-(dimethylcarbamoyl)pyridin-2-yl)-N-((6-(3,3-dimethylureido)pyridin-3-yl)methyl)-1-isopropyl-7-methyl-4,5,6,7-tetrahydro-1H-pyrazolo[4,3-c]pyridine-3-carboxamide] | 2 nM |  |  | 11 nM | 
